Measured values as given in the NIST ThermoML archive (doi:10.1021/je901020a).

How the values were obtained:
[1] = xn = mol fraction of the nth substance listed; details: 101 kPa, Liquid; for speed of sound: Pulse-echo method
[2] = refractive index (Na D-line) (dimensionless); xn = mol fraction of the nth substance listed; details: 101 kPa, Liquid, Standard Abbe refractometry

C1CCCCCCC1 [cyclooctane] + Cc1ccc(C)cc1
Details | mass density, [1] [kg/m3] | refractive index, [2] | speed of sound, [1] [m/s]
298.15 K, x1 = 0.0534 | 854.3 | 1.49055 | 1312
298.15 K, x1 = 0.1004 | 852.6 | 1.4883 | 1314
298.15 K, x1 = 0.2025 | 848.8 | 1.48358 | 1319
298.15 K, x1 = 0.303 | 845.4 | 1.4792 | 1325
298.15 K, x1 = 0.402 | 842.4 | 1.47506 | 1332
298.15 K, x1 = 0.4986 | 839.6 | 1.47129 | 1339
298.15 K, x1 = 0.599 | 837.1 | 1.46764 | 1348
298.15 K, x1 = 0.6981 | 835 | 1.46424 | 1357
298.15 K, x1 = 0.7968 | 833.3 | 1.46119 | 1367
298.15 K, x1 = 0.8926 | 832 | 1.4585 | 1377
298.15 K, x1 = 0.9504 | 831.5 | 1.45707 | 1384
298.15 K, x1 = 1 | 831.5 | 1.45598 | 1391
313.15 K, x1 = 0.0485 | 841.6 | 1.48247 | 1250
313.15 K, x1 = 0.0874 | 840.2 | 1.48077 | 1252
313.15 K, x1 = 0.1848 | 836.7 | 1.47651 | 1256
313.15 K, x1 = 0.2948 | 833.2 | 1.472 | 1262
313.15 K, x1 = 0.3853 | 830.4 | 1.46825 | 1268
313.15 K, x1 = 0.4829 | 827.7 | 1.46454 | 1274
313.15 K, x1 = 0.5809 | 825.3 | 1.46094 | 1282
313.15 K, x1 = 0.6837 | 823.1 | 1.45755 | 1291
313.15 K, x1 = 0.7877 | 821.3 | 1.45432 | 1301
313.15 K, x1 = 0.8888 | 820 | 1.45148 | 1312
313.15 K, x1 = 0.9413 | 819.5 | 1.4501 | 1318
313.15 K, x1 = 1 | 819.2 | 1.44877 | 1325
